Assays:
CK1ε = CK1ε (Homo sapiens (Human), UniProt P49674); assay: CK1ε kinase assay (Caliper LABCHIP electrophoretic separation of fluoresceinated peptide substrate and product); assay type: biochemical; settings: 200 pM enzyme, 50 μM ATP, 22 hours at room temperature
Method in brief: (§1)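 Incubated for twenty-two hours at ambient temperature, then quenched with EDTA and analyzed by electrophoretic separation of unphosphorylated and phosphorylated peptide.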

CK1δ = CK1δ (Homo sapiens (Human), UniProt P48730); assay: CK1δ kinase assay (Caliper LABCHIP electrophoretic separation of fluoresceinated peptide substrate and product); assay type: biochemical; settings: 200 pM enzyme, 50 μM ATP, 22 hours at room temperature
Chain of CK1δ (P48730 whole entry): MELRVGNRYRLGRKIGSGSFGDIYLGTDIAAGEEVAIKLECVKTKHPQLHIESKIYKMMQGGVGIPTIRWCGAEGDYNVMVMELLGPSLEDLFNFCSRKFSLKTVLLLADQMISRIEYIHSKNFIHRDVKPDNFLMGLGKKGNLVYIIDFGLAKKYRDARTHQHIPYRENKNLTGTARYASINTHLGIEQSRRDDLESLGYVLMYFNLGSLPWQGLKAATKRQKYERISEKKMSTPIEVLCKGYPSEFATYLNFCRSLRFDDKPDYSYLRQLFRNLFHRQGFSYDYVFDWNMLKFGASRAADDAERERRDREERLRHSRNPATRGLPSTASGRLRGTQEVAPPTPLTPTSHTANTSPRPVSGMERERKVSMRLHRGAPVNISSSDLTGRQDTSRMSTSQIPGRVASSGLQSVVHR
Method in brief: as §1

Chain of CK1ε (P49674 whole entry): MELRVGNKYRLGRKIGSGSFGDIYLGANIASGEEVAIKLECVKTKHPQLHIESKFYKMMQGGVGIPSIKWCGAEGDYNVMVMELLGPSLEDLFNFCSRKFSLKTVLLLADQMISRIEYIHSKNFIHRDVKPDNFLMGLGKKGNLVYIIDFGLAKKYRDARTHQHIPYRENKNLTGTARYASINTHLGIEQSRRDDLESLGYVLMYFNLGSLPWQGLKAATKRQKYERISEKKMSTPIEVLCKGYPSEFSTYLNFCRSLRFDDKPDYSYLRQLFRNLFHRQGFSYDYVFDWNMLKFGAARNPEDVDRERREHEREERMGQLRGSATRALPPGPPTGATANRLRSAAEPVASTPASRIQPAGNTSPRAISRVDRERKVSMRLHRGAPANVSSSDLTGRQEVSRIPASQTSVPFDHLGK

IC50 (CK1ε)	IC50 (CK1δ)	Structure (SMILES)
3.82 nM	0.238 nM	CC(C)(C)C(=O)Nc1cn2nc(-c3c(-c4ccc(F)cc4)ncn3CC3CNC(=O)C3)ccc2n1 (stereo not drawn) [Compound 277, N-(6-(4-(4-fluorophenyl)-1-((5-oxo-pyrrolidin-3-yl)methyl)-1H-imidazol-5-yl)imidazo[1,2-b]pyridazin-2-yl)pivalamide]
5.43 nM	0.444 nM	Cc1cc(Cn2cnc(-c3ccc(F)cc3)c2-c2ccc3nc(NC(=O)C(C)(C)C)cn3n2)no1 [Compound 278, N-(6-(4-(4-fluorophenyl)-1-((5-methyl-isoxazol-3-yl)ylmethyl)-1H-imidazol-5-yl)imidazo[1,2-b]pyridazin-2-yl)pivalamide]
0.887 nM	0.169 nM	CC(C)(C)C(=O)Nc1cn2nc(-c3c(-c4ccc(F)cc4)ncn3Cc3ccoc3)ccc2n1 [Compound 279, N-(6-(4-(4-fluorophenyl)-1-(furan-3-ylmethyl)-1H-imidazol-5-yl)imidazo[1,2-b]pyridazin-2-yl)pivalamide]
2.49 nM	0.52 nM	COCCn1cnc(-c2ccc(F)cc2)c1-c1ccc2nc(NC(=O)C(C)(C)C)cn2n1 [Compound 280, N-(6-(4-(4-fluorophenyl)-1-(2-methoxy-ethyl)-1H-imidazol-5-yl)imidazo[1,2-b]pyridazin-2-yl)pivalamide]
7.79 nM	1.81 nM	CC(C)(C)C(=O)Nc1cn2nc(-c3c(-c4ccc(F)cc4)ncn3Cc3cccnc3)ccc2n1 [Compound 281, N-(6-(4-(4-fluorophenyl)-1-(pyridin-3-ylmethyl)-1H-imidazol-5-yl)imidazo[1,2-b]pyridazin-2-yl)pivalamide]
13.2 nM	0.766 nM	CC(C)(C)C(=O)Nc1cn2nc(-c3c(-c4ccc(F)cc4)ncn3CCc3cccnc3)ccc2n1 [Compound 282, N-(6-(4-(4-fluorophenyl)-1-(2-(pyridin-3-yl)ethyl)-1H-imidazol-5-yl)imidazo[1,2-b]pyridazin-2-yl)pivalamide]
7.62 nM	0.545 nM	Cn1cnc(-c2ccc(F)cc2)c1-c1ccc2nc(NC(=O)C(C)(C)C)cn2n1 [Compound 283, N-(6-(4-(4-fluorophenyl)-1-methyl-1H-imidazol-5-yl)imidazo[1,2-b]pyridazin-2-yl)pivalamide]
2.02 nM	0.384 nM	Cc1nc(-c2ccc(F)cc2)c(-c2ccc3nc(NC(=O)c4ccnc(F)c4)cn3n2)n1CC(F)F [Compound 284, N-(6-(1-(2,2-Difluoroethyl)-4-(4-fluorophenyl)-2-methyl-1H-imidazol-5-yl)imidazo[1,2b]-pyridazin-2-yl)-2-fluoroisonicotinamide]
6.78 nM	0.727 nM	CCc1nc(-c2ccc(F)cc2)c(-c2ccc3nc(NC(=O)c4ccnc(F)c4)cn3n2)n1CC(F)F [Compound 286, N-(6-(1-(2,2-difluoroethyl)-2-ethyl-4-(4-fluorophenyl)-1H-imidazol-5-yl)imidazo[1,2-b]pyridazin-2-yl)-2-fluoroisonicotinamide]
0.222 nM	0.11 nM	Cc1nc(-c2ccc(F)cc2)c(-c2ccc3nc(NC(=O)c4ccnc(F)c4)cn3n2)n1CCF [Compound 288, 2-Fluoro-N-(6-(1-(2-fluoroethyl)-4-(4-fluorophenyl)-2-methyl-1H-imidazol-5-yl)imidazo[1,2-b]pyridazin-2-yl)isonicotinamide]
1.27 nM	0.613 nM	Cc1nc(-c2ccc(F)cc2)c(-c2ccc3nc(NC(=O)c4ccnc(F)c4)cn3n2)n1CC(F)(F)F [Compound 289, 2-fluoro-N-(6-(4-(4-fluorophenyl)-2-methyl-1-(2,2,2-trifluoroethyl)-1H-imidazol-5-yl)imidazo[1,2-b]pyridazin-2-yl)isonicotinamide]
1.89 nM	0.412 nM	Cc1nc(-c2ccc(F)c(F)c2)c(-c2ccc3nc(NC(=O)c4ccnc(F)c4)cn3n2)n1CCF [Compound 290, N-(6-(4-(3,4-difluorophenyl)-1-(2-fluoroethyl)-2-methyl-1H-imidazol-5-yl)imidazo[1,2-b]pyridazin-2-yl)-2-fluoroisonicotinamide]
2.64 nM	0.388 nM	Cc1nc(-c2ccc(F)c(F)c2)c(-c2ccc3nc(NC(=O)c4ccnc(F)c4)cn3n2)n1CC(F)F [Compound 291, N-(6-(1-(2,2-difluoroethyl)-4-(3,4-difluorophenyl)-2-methyl-1H-imidazol-5-yl)imidazo[1,2-b]pyridazin-2-yl)-2-fluoroiso-nicotinamide]
1.81 nM	0.208 nM	CCn1c(C)nc(-c2ccc(Cl)cc2)c1-c1ccc2nc(NC(=O)c3ccnc(F)c3)cn2n1 [Compound 292, N-(6-(4-(4-chlorophenyl)-1-ethyl-2-methyl-1H-imidazol-5-yl)imidazo[1,2-b]pyridazin-2-yl)-2-fluoroisonicotinamide]
1.28 nM	0.109 nM	Cc1nc(-c2ccc(Cl)cc2)c(-c2ccc3nc(NC(=O)c4ccnc(F)c4)cn3n2)n1CCF [Compound 293, N-(6-(4-(4-chlorophenyl)-1-(2-fluoroethyl)-2-methyl-1H-imidazol-5-yl)imidazo[1,2-b]pyridazin-2-yl)-2-fluoroisonicotinamide]
4.03 nM	0.208 nM	Cc1nc(-c2ccc(Cl)cc2)c(-c2ccc3nc(NC(=O)c4ccnc(F)c4)cn3n2)n1CC(F)F [Compound 294, N-(6-(4-(4-chlorophenyl)-1-(2,2-difluoroethyl)-2-methyl-1H-imidazol-5-yl)imidazo[1,2-b]pyridazin-2-yl)-2-fluoroiso-nicotinamide]
5.95 nM	0.126 nM	Cc1nc(-c2ccc(Cl)cc2)c(-c2ccc3nc(NC(=O)c4ccnc(F)c4)cn3n2)n1CC(F)(F)F [Compound 295, N-(6-(4-(4-chlorophenyl)-2-methyl-1-(2,2,2-trifluoroethyl)-1H-imidazol-5-yl)imidazo[1,2-b]pyridazin-2-yl)-2-fluoroisonicotin-amide]
10.2 nM	0.519 nM	Cc1nc(-c2ccc(Cl)cc2)c(-c2ccc3nc(NC(=O)c4ccnc(F)c4)cn3n2)n1C [Compound 296, N-(6-(4-(4-chlorophenyl)-1,2-dimethyl-1H-imidazol-5-yl)imidazo[1,2-b]pyridazin-2-yl)-2-fluoroisonicotinamide]
2.26 nM	0.354 nM	Cc1cc(-c2nc(C)n(CC(F)F)c2-c2ccc3nc(NC(=O)c4ccnc(F)c4)cn3n2)ccc1F [Compound 297]
5.29 nM	0.714 nM	Cc1cc(-c2nc(C)n(C)c2-c2ccc3nc(NC(=O)c4ccnc(F)c4)cn3n2)ccc1F [Compound 298, 2-fluoro-N-(6-(4-(4-fluoro-3-methylphenyl)-1,2-dimethyl-1H-imidazol-5-yl)imidazo[1,2-b]pyridazin-2-yl)isonicotinamide]
0.76 nM	0.186 nM	Cc1cc(-c2nc(C)n(CCF)c2-c2ccc3nc(NC(=O)c4ccnc(F)c4)cn3n2)ccc1F [Compound 299, 2-fluoro-N-(6-(4-(4-fluoro-3-methylphenyl)-1-(2-fluoroethyl)-2-methyl-1H-imidazol-5-yl)imidazo[1,2-b]pyridazin-2-yl) isonicotinamide]
4.4 nM	3.9 nM	Cc1nc(-c2ccc(F)cc2)c(-c2ccc3nc(NC(=O)c4cncs4)cn3n2)n1C [Compound 303, N-(6-(4-(4-fluorophenyl)-1,2-dimethyl-1H-imidazol-5-yl)imidazo[1,2-b]pyridazin-2-yl)thiazole-5-carboxamide]
48.5 nM	3.44 nM	Cc1nc(-c2ccc(F)cc2)c(-c2ccc3nc(NC(=O)c4coc(-c5ccncc5)n4)cn3n2)n1C [Compound 304, N-(6-(4-(4-fluorophenyl)-1,2-dimethyl-1H-imidazol-5-yl)imidazo[1,2-b]pyridazin-2-yl)-2-(pyridin-4-yl)oxazole-4-carboxamide]
5.26 nM	0.322 nM	Cc1nc(-c2ccncc2)sc1C(=O)Nc1cn2nc(-c3c(-c4ccc(F)cc4)nc(C)n3C)ccc2n1 [Compound 308, N-(6-(4-(4-fluorophenyl)-1,2-dimethyl-1H-imidazol-5-yl)imidazo[1,2-b]pyridazin-2-yl)-4-methyl-2-(pyridin-4-yl) thiazole-5-carboxamide]
8.37 nM	1.03 nM	Cc1nc(-c2ccc(F)cc2)c(-c2ccc3nc(NC(=O)c4cnc5ccccc5n4)cn3n2)n1C [Compound 310, N-(6-(4-(4-fluorophenyl)-1,2-dimethyl-1H-imidazol-5-yl)imidazo[1,2-b]pyridazin-2-yl) quinoxaline-2-carboxamide]
46.9 nM	33.9 nM	Cc1nc(-c2ccc(F)cc2)c(-c2ccc3nc(NC(=O)c4cc5ccccc5cn4)cn3n2)n1C [Compound 311, N-(6-(4-(4-fluorophenyl)-1,2-dimethyl-1H-imidazol-5-yl)imidazo[1,2-b]pyridazin-2-yl) isoquinoline-3-carboxamide]
19.6 nM	8.38 nM	Cc1nc(-c2ccc(F)cc2)c(-c2ccc3nc(NC(=O)c4ccc5ncccc5n4)cn3n2)n1C [Compound 312, N-(6-(4-(4-fluorophenyl)-1,2-dimethyl-1H-imidazol-5-yl)imidazo[1,2-b]pyridazin-2-yl)-1,5-naphthyridine-2-carboxamide]

Structure (SMILES)	IC50 (CK1ε)	IC50 (CK1δ)
O=C(Nc1cn2nc(-c3c(-c4ccc(F)cc4)nc(C4CC4)n3CC(F)F)ccc2n1)c1ccnc(F)c1 [Compound 285]	1.22 nM	0.245 nM
CC(C)c1nc(-c2ccc(F)cc2)c(-c2ccc3nc(NC(=O)c4ccnc(F)c4)cn3n2)n1CC(F)F [Compound 287, N-(6-(1-(2,2-difluoroethyl)-4-(4-fluorophenyl)-2-isopropyl-1H-imidazol-5-yl)imidazo[1,2-b]pyridazin-2-yl)-2-fluoroiso-nicotinamide]	9.17 nM	0.776 nM
Cc1ccc(-c2nc(C)n(C)c2-c2ccc3nc(NC(=O)c4ccnc(F)c4)cn3n2)cc1 [Compound 300, N-(6-(1,2-dimethyl-4-(p-tolyl)-1H-imidazol-5-yl)imidazo[1,2-b]pyridazin-2-yl)-2-fluoroiso-nicotinamide]	34.3 nM	1.8 nM

— patent publication US9556179B2 (BRISTOL-MYERS SQUIBB COMPANY, priority 2012, dated 2017)
